Experimental data taken from US20050020519A1, “Modulation of insulin-regulated aminopeptidase (irap)/angiotensin iv (at4) receptor activity” (priority 2001, published 2005).
Where no end group is shown, it is not given here.

How the values were obtained:
IRAP (AT4 receptor) = biological target: T1, IRAP (AT4 receptor) (Homo sapiens, UniProt Q9UIQ6); experiment: ^125I-Nle^1 Ang IV binding to membranes of HEK 293 cells transfected with IRAP cDNA; conditions: IRAP cDNA transfected cells
T1 construct: expressed in transfected cells; host or cells: HEK 293 cells (membranes)
T1 sequence (Q9UIQ6 whole entry): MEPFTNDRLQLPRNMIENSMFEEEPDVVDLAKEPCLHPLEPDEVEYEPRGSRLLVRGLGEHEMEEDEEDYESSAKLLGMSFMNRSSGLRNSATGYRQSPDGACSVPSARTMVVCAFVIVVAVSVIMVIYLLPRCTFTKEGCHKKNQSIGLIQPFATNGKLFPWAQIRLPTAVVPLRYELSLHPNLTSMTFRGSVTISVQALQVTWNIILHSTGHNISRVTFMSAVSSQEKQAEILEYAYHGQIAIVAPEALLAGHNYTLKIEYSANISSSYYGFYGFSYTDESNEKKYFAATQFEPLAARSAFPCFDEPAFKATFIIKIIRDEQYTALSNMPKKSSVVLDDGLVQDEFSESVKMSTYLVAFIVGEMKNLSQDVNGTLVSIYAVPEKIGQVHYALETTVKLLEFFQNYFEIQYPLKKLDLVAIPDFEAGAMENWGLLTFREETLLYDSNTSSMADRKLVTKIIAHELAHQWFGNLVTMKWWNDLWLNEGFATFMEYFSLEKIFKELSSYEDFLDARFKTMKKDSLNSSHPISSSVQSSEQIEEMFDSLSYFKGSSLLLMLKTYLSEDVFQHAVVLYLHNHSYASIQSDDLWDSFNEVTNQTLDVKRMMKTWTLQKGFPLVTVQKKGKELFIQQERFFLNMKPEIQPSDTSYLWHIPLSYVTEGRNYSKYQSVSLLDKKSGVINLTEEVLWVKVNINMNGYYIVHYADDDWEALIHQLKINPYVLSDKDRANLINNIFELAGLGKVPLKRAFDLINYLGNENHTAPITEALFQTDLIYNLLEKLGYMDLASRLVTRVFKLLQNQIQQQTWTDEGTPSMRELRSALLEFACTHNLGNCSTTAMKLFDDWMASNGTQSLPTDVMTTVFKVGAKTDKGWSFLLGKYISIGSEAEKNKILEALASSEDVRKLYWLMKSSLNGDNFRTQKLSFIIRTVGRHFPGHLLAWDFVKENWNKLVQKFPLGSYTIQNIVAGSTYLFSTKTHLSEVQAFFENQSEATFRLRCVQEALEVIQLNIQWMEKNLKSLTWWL
From the text: The amount of radioligand bound to the membranes from HEK 293 cells transfected with IRAP cDNA was expressed as a percentage of radioligand bound to membranes from HEK 293 cells transfected with control plasmids.

rats = experiment: Passive avoidance, scopolamine-induced amnesia; format: in vivo, rat
Description: Passive avoidance trials were then used to test the effect of modulation of AT4 receptor/IRAP activity on aversive conditioning behaviour in amnesic animals. The passive avoidance task involves aversive conditioning behaviour to measure facilitation of memory retention and retrieval. The testing was carried out in an apparatus that consisted of a light and a dark compartment separated by a guillotine door. The floor of the dark compartment contained an electrified grid.
Rats were surgically implanted with chronic cannulae in the lateral ventricle. On conditioning day, the animals were habituated in the dark compartment for 5 min with the guillotine door closed. The animals were then placed in their home cages for 5 min before being placed in the light compartment with the guillotine door opened. The latency to enter the dark compartment with all four feet was documented. When the rats entered the dark compartment within 20 s of being placed in the light compartment, they were randomly divided into four treatment groups. The treatment groups were: • (1) saline followed by saline; • (2) saline followed by 1.0 nmole […] (SEQ ID NO:2); • (3) 70 nmole scopolamine followed by saline; and • (4) 70 nmole scopolamine followed by 1.0 nmole […] (SEQ ID NO:2).
All of these were administered into the cerebral ventricles 30 min and 5 min before the acquisition trial. […]

mice = experiment: Y maze spatial memory, normal mice; format: in vivo, mouse
Description: The Y maze consists of three identical alleys (30 cm in length, 10 cm in width and 17 cm in height) with the three arms separated by 120° angles. To minimize stress, the maze is located in a sound-attenuated room under dim illumination, with the floor of the maze covered with sawdust. After each trial, the sawdust is mixed to eliminate olfactory cues. For spatial orientation, visual cues are placed on the walls of the testing room.
The test consisted of two trials, separated by a time interval known as the intertrial interval. During the acquisition trial, the animals were placed at the distal end of one arm, their heads pointing away from the centre of the maze. The mice were allowed to visit only two accessible arms of the maze for 3 minutes. At the end of the acquisition trial, the mice were replaced in their cages for the intertrial interval. During the retention trial, the animals had access to all three arms for 5 minutes. The number and duration of time spent in the novel arm were documented.
A shorter intertrial interval (2 hours) separating the acquisition phase from the retention phase enables amnesiant effects to be detected. Control mice still remember the location of the novel arm and will preferentially spend more time (45-50% of time) in that arm.
Mice were surgically implanted with an infusion cannula in the dorsal third ventricle. […]

SK-N-MC cells = experiment: [^3H]-thymidine uptake in SK-N-MC cells; format: cell-based; conditions: Ang IV 10^−10-10^−7 M; LVVYPWTQRF 10^−10-10^−6 M
Description: NG108-15 and SK-N-MC cells were cultured in DMEM supplemented with 10% heat-inactivated FCS, 2% HAT supplement, and 100 U/ml penicillin/streptomycin. Cells were routinely used between passages 20 and 30.
Cells were plated at a density of 3×10^4 cells/well in 24 well Falcon plates that had been coated with 0.1 mg/ml poly-L-lysine hydrobromide. The cells were allowed to adhere overnight, and then serum deprived for 48 h before being treated with […] (SEQ ID NO:2) and/or Ang IV (10^−10 to 10^−6 M) for 24 h in medium with or without serum. Five hours before the end of the experiment 1 μCi of ^3H-thymidine was added to each well. At the completion of the incubation, cells were washed twice with 1 ml of PBS at 4° C., followed by 5% trichloroacetic acid at 4° C. for 30 min, which was aspirated before solubilizing the cells in 1 ml 0.25 M NaOH and 0.1% SDS for 30 min at 37° C. Samples were then collected into 5 ml of Ready Value scintillation fluid and ^3H measured in a liquid scintillation counter.

## LVVYPWTQRF
IRAP (AT4 receptor)
  binding of ^125I-Nle^1 angiotensin IV to IRAP sites inhibited by ligand: competitively inhibited
rats; 1.0 nmole icv after 70 nmole scopolamine
  latency to re-enter the dark compartment: not significantly different from controls
rats; 1.0 nmole icv alone (after saline)
  latency to re-enter the dark compartment: comparable to the scopolamine-treated group
mice; after 6 days of infusion at 0.3 pmol/h
  time in novel arm versus control mice: indistinguishable from each other
mice; after three days of infusion at 0.3 pmol/h, 6 h intertrial interval, control approximately 33%
  time spent in the novel arm: 50-60 % of time
SK-N-MC cells
  increase of [^3H]-thymidine uptake: up to 81 % above control levels
